# Target: T1, Menin (Homo sapiens, UniProt O00255)
# T1 sequence (O00255 whole entry): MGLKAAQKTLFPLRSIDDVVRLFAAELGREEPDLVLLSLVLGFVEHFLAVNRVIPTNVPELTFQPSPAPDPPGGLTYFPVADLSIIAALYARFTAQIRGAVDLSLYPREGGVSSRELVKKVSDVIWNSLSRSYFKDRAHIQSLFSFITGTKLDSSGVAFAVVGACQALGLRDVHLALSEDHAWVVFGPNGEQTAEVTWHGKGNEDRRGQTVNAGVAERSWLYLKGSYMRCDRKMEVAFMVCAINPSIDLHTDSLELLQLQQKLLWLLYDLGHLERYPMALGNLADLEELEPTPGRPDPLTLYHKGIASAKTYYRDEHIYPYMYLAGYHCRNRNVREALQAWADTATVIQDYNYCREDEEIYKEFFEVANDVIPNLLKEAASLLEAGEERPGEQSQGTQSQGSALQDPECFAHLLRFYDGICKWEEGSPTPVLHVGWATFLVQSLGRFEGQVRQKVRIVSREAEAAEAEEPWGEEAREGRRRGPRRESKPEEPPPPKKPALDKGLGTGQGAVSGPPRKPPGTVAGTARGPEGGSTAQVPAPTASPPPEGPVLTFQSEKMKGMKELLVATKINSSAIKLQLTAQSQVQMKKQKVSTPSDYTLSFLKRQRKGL
# Assay: Primary Assay Used to Determine Potency of MEN1 Activity Inhibition
# Experimental: Compound activity was determined using recombinant MEN1 protein (Creativebiomart, Cat #MEN1-35H) and a custom fluorescein-labeled MLL4-43 peptide (Eton Bioscience Inc.). Interaction between MEN1 and MLL4-43 in the presence of compounds was determined by fluorescence polarization assay using a Microplate Reader ClarioStar Plus. The reaction was carried out in assay buffer (50 mM TRIS-HCl pH 7.4-7.6, 50 mM NaCl, 1 mM DTT, 0.1 mg/ml BSA). The compounds were dispensed on a 384 well Diamond Well Plate (Axigen, Cat #P-384-120SQ-C-S) using the Biomek FX liquid handling system at 100× solutions of compounds in DMSO. 2×MEN1 mix (final concentration of MEN1 10 nM) was prepared in Assay buffer and 10 μl of mixture per well was added into 384 w white Reaction plate with NBS (Corning, Cat #4513). 10 μl of Assay buffer w/o MEN1 was used for negative control. Plates were centrifuged for 1 min at 100 g. Next step the Compounds were added to Reaction plate using Biomek station via following steps: 3 μl of 100× compounds (in DMSO) were mixed thoroughly with 27 μl Assay Buffer, then 2 μl of this mixture was added to Reaction plate with 10 μl of MEN1 mix. Plates were centrifuged for 1 min at 100 g and incubated for 20 min at room temperature. Next 8 μL of MLL4-43 peptide per well was added to final concentration of MLL 0.5 nM. Plates were incubated for 1 hour at room temperature. Then fluorescence polarization was measured using Microplate Reader.
row,SMILES,EC50 [nM]
1,"Cc1c(CN2CCC3(CC2)CN(c2ncnc4ccc(CC(F)(F)F)cc24)C3)ccc2c1cc(C#N)n2CC(C)N1CCN(S(C)(=O)=O)CC1 (centres undefined) [US20250163061, Compound 71]",< 75
2,"Cc1c(CN2CCC3(CC2)CN(c2ncnc4ccc(CC(F)(F)F)cc24)C3)ccc2c1cc(C#N)n2CC1CCC(=O)NC1 (centres undefined) [US20250163061, Compound 72]",< 75
3,"CCCCS(=O)(=O)N1CCCN(C(C)Cn2c(C#N)cc3c(C)c(CN4CCC5(CC4)CN(c4ncnc6ccc(CC(F)(F)F)cc46)C5)ccc32)CC1 (centres undefined) [US20250163061, Compound 73]",< 75
4,"Cc1c(CN2CCC3(CC2)CN(c2ncnc4ccc(C(F)(F)C(F)(F)F)cc24)C3)ccc2c1cc(C#N)n2C[C@H](C)N1CCN(S(C)(=O)=O)CC1 [US20250163061, Compound 75]",< 75
5,"CC(Cn1c(C#N)cc2c(F)c(CN3CCC4(CC3)CN(c3ncnc5ccc(CC(F)(F)F)cc35)C4)ccc21)N1CCN(S(C)(=O)=O)CC1 (centres undefined) [US20250163061, Compound 78]",75 to 500
6,"Cc1c(CN2CCC3(CC2)CN(c2nncc4ccc(CC(F)(F)F)cc24)C3)ccc2c1cc(C#N)n2CC(C)N1CCN(S(C)(=O)=O)CC1 (centres undefined) [US20250163061, Compound 79]",> 5000
7,"Cc1cc(CN2CCC3(CC2)CN(c2ncnc4ccc(CC(F)(F)F)cc24)C3)cc2c1cc(C#N)n2CC(C)N1CCN(S(C)(=O)=O)CC1 (centres undefined) [US20250163061, Compound 83]",> 5000
8,"C=CC(=O)N1CCN(CCn2c(C#N)cc3cc(CN4CCC5(CC4)CN(c4ncnc6ccc(CC(F)(F)F)cc46)C5)ccc32)CC1 [US20250163061, Compound 86]",75 to 500
9,"Cc1c(CN2CCC3(CC2)CN(c2ncnc4ccc(CC(F)(F)F)cc24)C3)ccc2c1cc(C#N)n2CC1CNC(=O)CCO1 (centres undefined) [US20250163061, Compound 87]",< 75
10,"Cc1c(CN2CCC3(CC2)CN(c2ncnc4ncc(CC(F)(F)F)cc24)C3)ccc2c1cc(C#N)n2CC(C)N1CCN(S(C)(=O)=O)CC1 (centres undefined) [US20250163061, Compound 89]",< 75
11,"CS(=O)(=O)N1CCN(CCn2c(C#N)cc3cc(CN4CCC5(CC4)CN(c4ncnc6ccc(CC(F)(F)F)cc46)C5)ccc32)CC1 [US20250163061, Compound 91]",< 75
12,"Cc1c(CN2CCC3(CC2)CN(c2ncnc4ccc(CC(F)(F)F)cc24)C3)ccc2c1cc(C#N)n2CC(C)N1CCNC(=O)C1 (centres undefined) [US20250163061, Compound 93]",< 75
13,"Cc1c(CN2CCC3(CC2)CN(c2ncnc4ccc(CC(F)(F)F)cc24)C3)ccc2c1cc(C#N)n2CC12CC(NC=O)(C1)C2 [US20250163061, Compound 95]",< 75
14,"Cc1c(CN2CCC3(CC2)CN(c2ncnc4ccc(CC(F)(F)F)cc24)C3)ccc2c1cc(C#N)n2CCN1CCOCC1 [US20250163061, Compound 97]",< 75
15,"CN(C)C/C=C/C(=O)N1CCN(CCn2c(C#N)cc3cc(CN4CCC5(CC4)CN(c4ncnc6ccc(CC(F)(F)F)cc46)C5)ccc32)CC1 [US20250163061, Compound 99]",< 75
16,"Cc1c(CN2CCC3(CC2)CN(c2ncnc4ccc(CC(F)(F)F)cc24)C3)ccc2c1cc(C#N)n2C[C@H]1CNC(=O)CO1 [US20250163061, Compound 101]",< 75
17,"Cc1c(CN2CCC3(CC2)CN(c2ncnc4ccc(CC(F)(F)F)cc24)C3)ccc2c1cc(C#N)n2C[C@@H]1CNC(=O)CO1 [US20250163061, Compound 102]",< 75
18,"CCN1CC(Cn2c(C#N)cc3c(C)c(CN4CCC5(CC4)CN(c4ncnc6ccc(CC(F)(F)F)cc46)C5)ccc32)OCC1=O (centres undefined) [US20250163061, Compound 104]",< 75
19,"Cc1c(CN2CCC3(CC2)CN(c2nc(=O)[nH]c4ccc(CC(F)(F)F)cc24)C3)ccc2c1cc(C#N)n2C[C@@H]1CNC(=O)CO1 [US20250163061, Compound 105]",500 to 1000
